What was measured:
Lck enzyme = Lck enzyme (Homo sapiens (Human), UniProt P06239); assay: Lck enzyme activity, IMAP fluorescence polarization assay; settings: 60 min pre-incubation, 6 μM ATP, bin bounds in μM
Lyn enzyme = Lyn enzyme (Homo sapiens (Human), UniProt P07948); assay: Lyn enzyme activity, IMAP fluorescence polarization assay; settings: 60 min pre-incubation, 2 μM ATP, bin bounds in μM
Btk enzyme (His-Btk) = Btk enzyme (His-Btk) (Homo sapiens (Human), UniProt Q06187); assay: Btk enzyme activity, IMAP fluorescence polarization assay; settings: 60 min pre-incubation, 5 μM ATP
Chain of Btk enzyme (His-Btk) (Q06187 whole entry): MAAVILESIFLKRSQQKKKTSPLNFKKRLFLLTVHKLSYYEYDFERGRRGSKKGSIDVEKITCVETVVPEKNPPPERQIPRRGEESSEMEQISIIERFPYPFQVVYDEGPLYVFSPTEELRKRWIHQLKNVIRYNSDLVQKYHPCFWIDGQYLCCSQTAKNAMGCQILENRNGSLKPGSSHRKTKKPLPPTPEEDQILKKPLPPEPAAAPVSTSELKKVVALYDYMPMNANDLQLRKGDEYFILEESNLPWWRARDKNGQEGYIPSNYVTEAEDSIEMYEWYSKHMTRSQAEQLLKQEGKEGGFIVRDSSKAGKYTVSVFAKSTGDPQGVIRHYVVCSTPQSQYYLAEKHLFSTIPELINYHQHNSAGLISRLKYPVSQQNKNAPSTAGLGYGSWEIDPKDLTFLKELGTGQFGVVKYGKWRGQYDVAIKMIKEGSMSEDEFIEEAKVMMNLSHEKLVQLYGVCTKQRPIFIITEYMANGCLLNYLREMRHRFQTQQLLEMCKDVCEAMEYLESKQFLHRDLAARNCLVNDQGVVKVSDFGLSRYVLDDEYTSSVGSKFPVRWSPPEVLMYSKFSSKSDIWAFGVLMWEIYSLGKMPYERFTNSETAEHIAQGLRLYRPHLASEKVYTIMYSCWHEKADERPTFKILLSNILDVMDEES

Chain of Lyn enzyme (P07948 whole entry): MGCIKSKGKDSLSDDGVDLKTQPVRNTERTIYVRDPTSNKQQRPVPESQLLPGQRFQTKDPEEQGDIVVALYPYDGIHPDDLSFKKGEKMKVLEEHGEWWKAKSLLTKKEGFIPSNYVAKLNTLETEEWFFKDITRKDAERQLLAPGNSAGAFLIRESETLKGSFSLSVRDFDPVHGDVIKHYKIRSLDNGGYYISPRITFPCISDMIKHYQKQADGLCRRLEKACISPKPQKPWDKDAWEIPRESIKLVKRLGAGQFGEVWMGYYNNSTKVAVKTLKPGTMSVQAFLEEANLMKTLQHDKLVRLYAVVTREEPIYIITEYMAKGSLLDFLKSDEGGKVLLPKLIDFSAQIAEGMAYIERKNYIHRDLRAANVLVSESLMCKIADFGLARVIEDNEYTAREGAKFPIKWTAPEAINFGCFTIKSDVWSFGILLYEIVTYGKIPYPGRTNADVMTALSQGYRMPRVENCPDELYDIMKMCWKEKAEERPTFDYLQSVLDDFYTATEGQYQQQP
Chain of Lck enzyme (P06239 whole entry): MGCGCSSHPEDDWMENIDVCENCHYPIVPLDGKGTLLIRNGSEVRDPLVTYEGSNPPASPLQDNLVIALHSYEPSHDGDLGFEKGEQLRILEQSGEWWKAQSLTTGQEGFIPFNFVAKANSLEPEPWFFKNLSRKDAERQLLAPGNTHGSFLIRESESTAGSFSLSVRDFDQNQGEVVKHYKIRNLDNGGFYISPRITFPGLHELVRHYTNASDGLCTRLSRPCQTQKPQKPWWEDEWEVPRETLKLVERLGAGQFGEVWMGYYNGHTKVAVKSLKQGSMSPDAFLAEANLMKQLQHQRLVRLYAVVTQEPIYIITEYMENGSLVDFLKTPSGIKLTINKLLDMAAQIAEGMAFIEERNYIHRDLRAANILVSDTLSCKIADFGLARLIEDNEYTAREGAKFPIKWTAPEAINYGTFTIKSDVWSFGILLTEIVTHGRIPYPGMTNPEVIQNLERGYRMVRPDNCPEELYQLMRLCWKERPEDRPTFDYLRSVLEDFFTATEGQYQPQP

Compound | EC50 Lck activity values (Lck enzyme) | EC50 Lyn activity values (Lyn enzyme) | EC50 Btk activity values (Btk enzyme (His-Btk); bin bounds in μM) | EC50 Btk activity values (Btk enzyme (His-Btk); bin bounds in nM)
C=CC(=O)N1CCC[C@H]1c1nc(-c2ccc(C(=O)Nc3cc(-c4ccccc4)ccn3)cc2)c2c(N)nccn12 [Example 133, (S)-4-(3-(1-acryloylpyrrolidin-2-yl)-8-aminoimidazo[1,5-a]pyrazin-1-yl)-N-(4-phenylpyridin-2-yl)benzamide] | <1 µM | <1 µM |  | 
C=CC(=O)N1CCC[C@H]1c1nc(-c2ccc(C(=O)Nc3cc(CCC)ccn3)cc2)c2c(N)nccn12 [Example 125, (S)-4-(3-(1-acryloylpyrrolidin-2-yl)-8-aminoimidazo[1,5-a]pyrazin-1-yl)-N-(4-propylpyridin-2-yl)benzamide] | <1 µM | <1 µM |  | 
Nc1nccn2c([C@@H]3CCCN3C(=O)/C=C/c3ccccc3)nc(-c3ccc(C(=O)Nc4ccccn4)cc3)c12 [Example 104, (S,E)-4-(8-amino-3-(1-cinnamoylpyrrolidin-2-yl)imidazo[1,5-a]pyrazin-1-yl)-N-(pyridin-2-yl)benzamide] | <1 µM |  | <1 µM | 
C=CC(=O)N1CCC[C@H]1c1nc(-c2ccc(C(=O)Nc3cc(CC)ccn3)cc2)c2c(N)nccn12 [Example 126, (S)-4-(3-(1-acryloylpyrrolidin-2-yl)-8-aminoimidazo[1,5-a]pyrazin-1-yl)-N-(4-ethylpyridin-2-yl)benzamide] | <1 µM | <1 µM |  | 
C=CC(=O)N1CCC[C@H]1c1nc(-c2ccc(C(=O)Nc3cc(C)ccn3)cc2)c2c(N)nccn12 [Example 124, (S)-4-(3-(1-acryloylpyrrolidin-2-yl)-8-aminoimidazo[1,5-a]pyrazin-1-yl)-N-(4-methylpyridin-2-yl)benzamide] | <1 µM | <1 µM |  | 
C=CC(=O)N1CCC[C@H]1c1nc(-c2ccc(C(=O)Nc3cc(C(F)(F)F)ccn3)cc2)c2c(N)nccn12 [Example 62, (S)-4-(3-(1-acryloylpyrrolidin-2-yl)-8-aminoimidazo[1,5-a]pyrazin-1-yl)-N-(4-(trifluoromethyl)pyridin-2-yl)benzamide] | <1 µM |  |  | 
CC#CC(=O)N1CCC[C@H]1c1nc(-c2ccc(C(=O)Nc3nccs3)cc2)c2c(N)nccn12 [Example 60, (S)-4-(8-amino-3-(1-but-2-ynoylpyrrolidin-2-yl)imidazo[1,5-a]pyrazin-1-yl)-N-(thiazol-2-yl)benzamide] | <1 µM | <1 µM |  | <0.1 µM
CCCc1ccnc(NC(=O)c2ccc(-c3nc([C@H](C)N(C)C(=O)/C=C/CN(C)C)n4ccnc(N)c34)cc2)c1 [Example 76, (S,E)-4-(8-amino-3-(1-(4-(dimethylamino)-N-methylbut-2-enamido)ethyl)imidazo[1,5-a]pyrazin-1-yl)-N-(4-propylpyridin-2-yl)benzamide] | <1 µM |  |  | 

Reference: patent US10934296B2, “4-imidazopyridazin-1-yl-benzamides as Btk inhibitors” (Merck Sharp & Dohme B.V., priority 2011, dated 2021)
